pIC50: −log10 of the molar value. Where two headings read alike, the source gives them in different places.
Columns and labels:
Format in all cases: cell-based, human
HTT mRNA = assay: Splicing RT-qPCR assay, HTT canonical (CJ) and alternative (AJ) junction mRNA; conditions: Homo sapiens; for pIC50: canonical junction mRNA; for AC50: alternative junction mRNA, read-out: HTT AJ (AC50, increase in AJ mRNA)
Summary of the method: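 A673 cells (DMEM, 10% FBS) or K562 cells (IMDM, 10% FBS) were treated for 24 h at 37° C with an 11-point 3-fold dilution series, top dose 10 uM, DMSO ≤0.25%. Canonical and alternative junction mRNA was measured in lysates by one-step RT-qPCR. Normalization used PPIA for A673 and GAPDH or GUSB for K562.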

HiBiT-tagged MYB protein = assay: HiBiT protein abundance assay, MYB (K562 HiBiT knock-in); conditions: HiBiT knock-in cells, 24 hours
Summary of the method: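 Endogenously HiBiT-tagged K562 knock-in lines treated 24 h at 37 °C with 10-point 3-fold dilutions (top 10 μM final, DMSO ≤0.25%) in IMDM+1% FBS. Lytic Nano-Glo luminescence normalized to DMSO and unmodified K562 controls; four-parameter fit gives 50%-abundance concentration (IC50).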

Target C = assay: HiBiT protein abundance assay, Target C (K562 HiBiT knock-in); conditions: HiBiT knock-in cells, 24 hours
Summary of the method: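 K562 HiBiT knock-in cells (10000/well) in IMDM + 1% FBS were treated for 24 h at 37° C. with a 10-point 3-fold dilution series (top 10 μM final), with DMSO ≤0.25%. Unmodified K562 served as baseline. HiBiT lytic luminescence was normalized to controls, and IC50 was interpolated at 50% from a four-parameter fit.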

[1] = 24 h, RT-qPCR, A673 or K562 cells, 24 hours treatment, read-out: HTT CJ (IC50, decrease in CJ mRNA)
[2] = qPCR panel, read-out: HTT CJ (decrease in CJ mRNA levels, IC50)
[3] = RT-qPCR, A673 or K562 cells, 24 hours treatment

Compound | pIC50 (HTT mRNA; [1]) | pIC50 (HTT mRNA; [2]) | pIC50 (HiBiT-tagged MYB protein) | pIC50 (Target C) | AC50 (HTT mRNA; [3])
Cc1c(O)c(-c2cc(Cl)c3cc(N4CCNCC4)cnc3n2)cc2cn(C)nc12 [Compound 154, 5-[4-chloro-6-(piperazin-1-yl)-1,8-naphthyridin-2-yl]-2,7-dimethylindazol-6-ol] | 6.00 to 7.00 | 6.00 to 7.00 | > 7.00 | 6.00 to 7.00 | 0.1 to 1 µM
Cc1cn2nc(-c3ccc4cc(N(C)C5CCNCC5)cnc4n3)cc(C)c2n1 [Compound 205, 7-{2,8-dimethylimidazo[1,2-b]pyridazin-6-yl}-N-methyl-N-(piperidin-4-yl)-1,8-naphthyridin-3-amine] | < 5.00 | < 5.00 | 5.00 to 6.00 | < 5.00 | > 10 µM
CNC1CCN(c2cnc3nc(-c4cc(F)c5nc(C)cn5c4)ccc3c2)C1 (stereo not shown) [Compound 100, 1-(7-{8-fluoro-2-methylimidazo[1,2-a]pyridin-6-yl}-1,8-naphthyridin-3-yl)-N-methylpyrrolidin-3-amine] | 6.00 to 7.00 | 6.00 to 7.00 | > 7.00 | 6.00 to 7.00 | 0.1 to 1 µM

More lines, main results first:

pIC50 (HTT mRNA; [1]) | pIC50 (HTT mRNA; [2]) | pIC50 (HiBiT-tagged MYB protein) | pIC50 (Target C) | Compound | AC50 (HTT mRNA; [3])
5.00 to 6.00 | 5.00 to 6.00 | > 7.00 | 5.00 to 6.00 | Cn1cc2cc(-c3ccc4cc(N5CC[C@@H](NC(C)(C)C)C5)cnc4n3)c(O)cc2n1 [Compound 199] | 1 to 10 µM
6.00 to 7.00 | 6.00 to 7.00 | 6.00 to 7.00 | 6.00 to 7.00 | CNC1CCN(c2cnc3nc(-c4cc5cn(C)nc5c(C)c4O)ccc3n2)C1 (stereo not shown) [Compound 192, 2,7-dimethyl-5-{2-[3-(methylamino)337pyrrolidine-1-yl]pyrido[2,3-b]pyrazin-6-yl}indazol-6-ol] | 0.1 to 1 µM
5.00 to 6.00 | 5.00 to 6.00 | 6.00 to 7.00 | 5.00 to 6.00 | Cc1c(O)c(-c2ccc3nc(N4C[C@@H](C)N[C@@H](C)C4)cnc3n2)cc2cn(C)nc12 [Compound 195, 5-{2-[(3R,5S)-3,5-dimethylpiperazin-1-yl]pyrido[2,3-b]pyrazin-6-yl}-2,7-dimethylindazol-6-ol] | > 10 µM
6.00 to 7.00 | 6.00 to 7.00 | 6.00 to 7.00 | 6.00 to 7.00 | Cc1c(O)c(-c2ccc3nc(N4CCNCC4)cnc3n2)cc2cn(C)nc12 [Compound 197, 2,7-dimethyl-5-[2-(piperazin-1-yl)pyrido[2,3-b]pyrazin-6-yl]indazol-6-ol] | 0.1 to 1 µM
> 7.00 | > 7.00 | > 7.00 | 6.00 to 7.00 | Cn1cc2cc(-c3cc(Cl)c4cc(N5CCNCC5)cnc4n3)c(O)c(F)c2n1 [Compound 155, 5-[4-chloro-6-(piperazin-1-yl)-1,8-naphthyridin-2-yl]-7-fluoro-2-methylindazol-6-ol] | < 0.1 µM

— patent US20250326748A1, “COMPOUNDS AND METHODS FOR MODULATING SPLICING” (REMIX THERAPEUTICS INC., priority 2022, published 2025)
